Results: patent publication US20210069375A1, “Extracellular Matrices, Uses thereof, and Method for Making Extracellular Matrices” (Gemstone Biotherapeutics LLC, priority 2017, published 2021)

Experiment: reactivity of the drug under the curing conditions of the EMR
Type: physicochemical
Conditions: mixed with dextramate, PEGDA and Irgacure, cured for 10 minutes
Method: Dextramate (24.2 mL of a 23.1 w/w % solution), PEGDA (16.3 mL of a 8.6 w/w % solution), Irgacure (14 mL of a 0.5 w/w % solution), and valsartan (2.82 mL or 1.41 mL of a 24.8 w/w % solution or 2.82 mL of a 1:10 dilution of a 24.8 w/w % solution) are mixed together. The mixture is cured for 10 minutes. After curing, 100 mL of dH2O is added to the cured product to create a swelled gel.

reactivity under the curing conditions: does not exhibit reactivity
Compound: CCCCC(=O)N(Cc1ccc(-c2ccccc2-c2nnn[nH]2)cc1)[C@H](C(=O)O)C(C)C [valsartan]
